These results are taken from the supplement of paper PMC12137928.

This assay deals with HCT116. The settings on record: 72 h. In a few lines: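 For IC50 and maximal efficacy, four-parameter Hill fits were used. Input values were CellTiter-Glo luminescence from HCT116 cells seeded at 250 per well in 1536-well plates, normalized to vehicle (0%) and positive control (-100%). Pattern correction followed normalization.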

SMILES strings stand for the structures. Structures can show the parent of a compound that is named as a salt.

Take `CCOC(=O)OC(C)OC(=O)[C@@H]1N2C(=O)[C@@H](NC(=O)[C@H](N)c3ccccc3)[C@H]2SC1(C)C` (stereo partly drawn) [Bacampicillin hydrochloride]: the IC50 cell viability is, setting by setting: (ICRF193 0 nM) more than 45.8 µM; (ICRF193 200 nM) more than 45.8 µM.
For the compound `COc1ccc2c(c1)C(=O)N(CCc1ccc(S(=O)(=O)NC(=O)NC3CCCCC3)cc1)C(=O)C2(C)C` [Gliquidone], the IC50 cell viability is, setting by setting: (ICRF193 0 nM) more than 45.8 µM; (ICRF193 200 nM) more than 45.8 µM.
Consider `CCCC[C@@H](O)/C=C(C)/C=C/C=C/C(=O)N1CCCC1=O` [Variotin], for which the IC50 cell viability is more than 45.8 µM (ICRF193 0 nM) and more than 45.8 µM (ICRF193 200 nM).
`C[C@]12C=CC(=O)C=C1CC[C@@H]1[C@@H]2[C@@H](O)C[C@@]2(C)[C@H]1CC[C@]2(O)C(=O)COC(=O)CCC(=O)O` [PREDNISOLONE HEMISUCCINATE]: the IC50 cell viability is, setting by setting: (ICRF193 0 nM) more than 45.8 µM; (ICRF193 200 nM) more than 45.8 µM.
As for `CN(C)CCN1C(=O)c2ccccc2N(C)c2ccccc21` [Dibenzepin hydrochloride], the IC50 cell viability by setting is: (ICRF193 0 nM) more than 45.8 µM; (ICRF193 200 nM) more than 45.8 µM.
Regarding `C[N+]1(C)CCCCC1COC(=O)C(O)(c1ccccc1)c1ccccc1` (stereo not drawn) [Bevonium metilsulfate], the IC50 cell viability (ICRF193 0 nM) is more than 45.8 µM and the IC50 cell viability (ICRF193 200 nM) was more than 45.8 µM.
Consider `CN/C(=N\CCSCc1nc[nH]c1C)NC#N` [Cimetidine], for which the IC50 cell viability (ICRF193 0 nM) was more than 45.8 µM and the IC50 cell viability (ICRF193 200 nM) is more than 45.8 µM.
Regarding `CCCCOc1cc(C(=O)OCCN(CC)CC)ccc1N` [Benoxinate hydrochloride], the IC50 cell viability was more than 45.8 µM (ICRF193 0 nM) and more than 45.8 µM (ICRF193 200 nM).
Take `CN1C2=CC(=O)/C(=N\NC(N)=O)C=C2CC1S(=O)(=O)O` (stereo not drawn) [Carbazochrome sodium sulfonate]: the IC50 cell viability was more than 45.8 µM (ICRF193 0 nM) and more than 45.8 µM (ICRF193 200 nM).
As for `O=C(O)P(=O)(O)O` [Foscarnet trisodium], the IC50 cell viability (ICRF193 0 nM) is more than 45.8 µM and the IC50 cell viability (ICRF193 200 nM) was more than 45.8 µM.
`CC[C@H]1OC(=O)C[C@@H](O)[C@H](C)[C@@H](O[C@@H]2O[C@H](C)[C@@H](O)[C@H](N(C)C)[C@H]2O)[C@@H](CCN2CCCCC2)C[C@@H](C)C(=O)/C=C/C(C)=C/[C@@H]1CN1CCCCC1` [Tildipirosin] came in with an IC50 cell viability (ICRF193 0 nM) of more than 45.8 µM and an IC50 cell viability (ICRF193 200 nM) of more than 45.8 µM.
On to `Cc1c(Nc2ncccc2C(=O)O)cccc1C(F)(F)F` [Flunixin meglumine], for which the IC50 cell viability by setting is: (ICRF193 0 nM) more than 45.8 µM; (ICRF193 200 nM) more than 45.8 µM.
On to `C=C(C)[C@H]1CN[C@H](C(=O)O)[C@H]1CC(=O)O` [Kainic acid], for which the IC50 cell viability was more than 45.8 µM (ICRF193 0 nM) and more than 45.8 µM (ICRF193 200 nM).
As for `CCN(C)C(C)C(O)c1ccccc1` (stereo not drawn) [Etafedrine hydrochloride], the IC50 cell viability was more than 45.8 µM (ICRF193 0 nM) and more than 45.8 µM (ICRF193 200 nM).
On to `NC[C@H](O)c1ccc(O)c(O)c1` [Noradrenaline bitartrate monohydrate], for which the IC50 cell viability by setting is: (ICRF193 0 nM) more than 45.8 µM; (ICRF193 200 nM) more than 45.8 µM.
In the case of `Cc1onc(-c2ccccc2)c1C(=O)N[C@@H]1C(=O)N2[C@@H]1SC(C)(C)[C@@H]2C(=O)O` [Oxacillin sodium], the IC50 cell viability was more than 45.8 µM (ICRF193 0 nM) and more than 45.8 µM (ICRF193 200 nM).
Turning to `O=C(Nc1cccc(C2=NCCN2)c1)Nc1cccc(C2=NCCN2)c1` [Imidocarb dipropionate], the IC50 cell viability is more than 45.8 µM (ICRF193 0 nM) and more than 45.8 µM (ICRF193 200 nM).
In the case of `COc1nc2ccc(Br)cc2cc1[C@@H](c1ccccc1)[C@@](O)(CCN(C)C)c1cccc2ccccc12` [Bedaquiline (TMC-207)], the IC50 cell viability is, setting by setting: (ICRF193 0 nM) more than 45.8 µM; (ICRF193 200 nM) more than 45.8 µM.
`CC[N+](CC)(CCNC(=O)C(=O)NCC[N+](CC)(CC)Cc1ccccc1Cl)Cc1ccccc1Cl` [Ambenonium chloride] showed an IC50 cell viability (ICRF193 0 nM) of more than 45.8 µM and an IC50 cell viability (ICRF193 200 nM) of more than 45.8 µM.
